Values of other authors in patent US20040258741A1, “Percutaneous absorption preparations” (priority 2001, published 2004).
Where a name gives a salt, the structure may show the parent alone.

Legend:
[1] = system: intracranial ACh; conditions: in vivo
[2] = target: T1, AChE (Homo sapiens, UniProt P22303); conditions: in vitro
[3] = target: T1, AChE

T1 sequence (P22303 32-614): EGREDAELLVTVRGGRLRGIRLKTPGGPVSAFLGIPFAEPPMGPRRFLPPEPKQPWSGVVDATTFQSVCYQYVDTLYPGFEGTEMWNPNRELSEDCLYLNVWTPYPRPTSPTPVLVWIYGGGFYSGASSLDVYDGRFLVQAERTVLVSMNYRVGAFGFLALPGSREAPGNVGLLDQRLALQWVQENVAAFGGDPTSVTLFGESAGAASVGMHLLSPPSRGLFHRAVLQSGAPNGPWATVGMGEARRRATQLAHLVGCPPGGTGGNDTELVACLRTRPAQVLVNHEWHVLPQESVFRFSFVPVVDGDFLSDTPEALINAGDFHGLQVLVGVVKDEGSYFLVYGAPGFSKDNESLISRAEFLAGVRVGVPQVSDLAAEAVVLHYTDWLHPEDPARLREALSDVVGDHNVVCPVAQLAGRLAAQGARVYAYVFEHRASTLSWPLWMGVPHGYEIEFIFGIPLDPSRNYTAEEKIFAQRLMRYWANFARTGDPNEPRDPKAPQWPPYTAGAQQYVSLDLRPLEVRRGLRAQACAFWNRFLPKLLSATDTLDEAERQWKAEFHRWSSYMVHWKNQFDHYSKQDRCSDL

## O=C(O)/C=C\C(=O)O.O=C1Cc2cc3c(CCC4CCN(Cc5ccccc5)CC4)noc3cc2N1 [Icopezil, 5,7-dihydro-3-[2-[1-(phenylmethyl)-4-piperidinyl]ethyl]-6H-pyrrolo-[4,5-f]-1,2-benzisoxazol-6-one maleate]
[1]
  intracranial ACh: clearly increases intracranial ACh in vivo
[2]
  AChE selectivity compared with tacrine: higher AChE selectivity than the existing AChE inhibitor tacrine

## COc1cc2c(cc1OC)C(=O)C(F)(CC1CCN(Cc3cccc(F)c3)CC1)C2 (stereo not drawn) [ER-127528, 4-[(5,6-dimethoxy-2-fluoro-1-indanon)-2-yl]methyl-1-(3-fluorobenzyl)piperidine hydrochloride]
[3]
  in vitro AChE inhibition action compared with Donepezil: stronger in vitro AChE inhibition action than Donepezil
